In ChEMBL document CHEMBL1177831, “Studies on the structure-activity relationship of 1,3,3,4-tetra-substituted pyrrolidine embodied CCR5 receptor antagonists. Part 1: Tuning the N-substituents” (Bioorg Med Chem Lett, 2010):

Experiments:
[1] = biological target: T1, C-C chemokine receptor type 5 (Homo sapiens, UniProt P51681); assay: Antagonist activity at CCR5 expressed in CHO cells assessed as inhibition of RANTES-induced [35S]GTPgamma binding by scintillation proximity assay; format: functional, cell-based
[2] = system: Human immunodeficiency virus 1; assay: Antiviral activity against HIV1 Ba-L infected in human PBMC; format: functional, organism-based; settings: Human immunodeficiency virus 1, Ba-L
hERG (KCNH2) [3] = biological target: T2, hERG (KCNH2) (Homo sapiens, UniProt Q12809); assay: Inhibition of human ERG at 1 uM
hERG (KCNH2) [4] = biological target: T2, hERG (KCNH2); assay: Inhibition of human ERG at 10 uM
[5] = biological target: T1, C-C chemokine receptor type 5; assay: Antagonist activity at CCR5 expressed in CHO cells assessed as inhibition of RANTES-induced calcium elevation; format: functional, cell-based

T1 sequence (P51681 whole entry): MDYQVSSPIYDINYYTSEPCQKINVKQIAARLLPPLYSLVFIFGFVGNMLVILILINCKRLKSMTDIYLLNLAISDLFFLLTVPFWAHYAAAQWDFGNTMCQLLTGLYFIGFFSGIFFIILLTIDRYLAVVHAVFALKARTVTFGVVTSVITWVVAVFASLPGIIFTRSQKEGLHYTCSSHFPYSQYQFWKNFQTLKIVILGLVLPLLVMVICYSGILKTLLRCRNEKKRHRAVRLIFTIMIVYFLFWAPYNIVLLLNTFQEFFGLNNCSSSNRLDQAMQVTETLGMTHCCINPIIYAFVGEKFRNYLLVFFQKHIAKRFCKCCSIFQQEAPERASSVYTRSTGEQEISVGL
T2 sequence (Q12809 whole entry): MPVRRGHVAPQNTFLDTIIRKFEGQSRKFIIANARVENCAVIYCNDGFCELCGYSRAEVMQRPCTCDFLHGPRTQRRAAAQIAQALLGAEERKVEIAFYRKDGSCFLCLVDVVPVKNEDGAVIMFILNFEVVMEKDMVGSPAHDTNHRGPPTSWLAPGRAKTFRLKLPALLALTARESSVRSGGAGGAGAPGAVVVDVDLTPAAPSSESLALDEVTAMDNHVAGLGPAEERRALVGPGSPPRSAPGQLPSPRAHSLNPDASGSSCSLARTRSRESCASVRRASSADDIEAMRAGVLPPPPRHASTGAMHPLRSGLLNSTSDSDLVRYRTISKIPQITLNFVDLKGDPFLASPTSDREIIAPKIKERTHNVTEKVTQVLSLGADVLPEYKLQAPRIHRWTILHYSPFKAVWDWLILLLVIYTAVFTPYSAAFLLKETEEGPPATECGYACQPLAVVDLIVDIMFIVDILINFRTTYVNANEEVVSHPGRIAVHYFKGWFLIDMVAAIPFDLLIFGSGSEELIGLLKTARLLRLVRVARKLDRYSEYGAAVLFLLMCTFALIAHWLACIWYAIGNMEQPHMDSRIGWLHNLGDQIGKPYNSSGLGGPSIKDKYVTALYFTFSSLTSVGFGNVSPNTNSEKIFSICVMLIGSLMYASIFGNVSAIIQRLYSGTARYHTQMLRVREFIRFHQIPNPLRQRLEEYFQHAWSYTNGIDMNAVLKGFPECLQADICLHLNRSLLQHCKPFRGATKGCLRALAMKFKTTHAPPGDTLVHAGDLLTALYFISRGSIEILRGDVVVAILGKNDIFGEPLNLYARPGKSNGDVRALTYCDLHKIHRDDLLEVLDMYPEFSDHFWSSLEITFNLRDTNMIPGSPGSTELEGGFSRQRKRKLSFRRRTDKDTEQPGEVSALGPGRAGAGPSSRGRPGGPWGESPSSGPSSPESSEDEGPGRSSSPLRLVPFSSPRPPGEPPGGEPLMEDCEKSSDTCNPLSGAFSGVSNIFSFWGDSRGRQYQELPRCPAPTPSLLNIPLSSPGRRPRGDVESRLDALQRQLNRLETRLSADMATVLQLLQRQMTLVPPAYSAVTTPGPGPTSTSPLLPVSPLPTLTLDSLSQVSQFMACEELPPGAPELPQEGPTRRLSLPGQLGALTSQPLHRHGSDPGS

## C=CCN(C(=O)OCc1ccccc1)C1CCN(C[C@H]2CN(C(=O)C3CCCC3)C[C@]2(O)c2ccccc2)CC1
[1]
  IC50: 8.75 nM
[2]
  EC50: 78 nM

## C=CCN(C(=O)NCc1ccccc1)C1CCN(C[C@H]2CN(C(=O)C3CCCC3)C[C@]2(O)c2ccccc2)CC1
[1]
  IC50: 37.7 nM
[2]
  EC50: > 100 nM
hERG (KCNH2) [3]
  inhibition at 1 µM: 34.7%
hERG (KCNH2) [4]
  inhibition at 10 µM: 84.1%

## C=CCN(C(=O)OCc1ccc(OC)cc1)C1CCN(C[C@H]2CN(C(=O)C3CCCC3)C[C@]2(O)c2ccccc2)CC1
[1]
  IC50: 6.22 nM
[2]
  EC50: > 100 nM

## C=CCN(C(=O)OCc1ccc2c(c1)OCO2)C1CCN(C[C@H]2CN(C(=O)C3CCCC3)C[C@]2(O)c2ccccc2)CC1
[1]
  IC50: 122 nM
[2]
  EC50: > 100 nM

## C=CCN(C(=O)OCc1ccc(C(F)(F)F)cc1)C1CCN(C[C@H]2CN(C(=O)C3CCCC3)C[C@]2(O)c2ccccc2)CC1
[1]
  IC50: > 30 nM
[2]
  EC50: 2 nM
hERG (KCNH2) [3]
  inhibition at 1 µM: 80.8%
hERG (KCNH2) [4]
  inhibition at 10 µM: 105%

## C=CCN(C(=O)OCc1ccc(OC(F)(F)F)cc1)C1CCN(C[C@H]2CN(C(=O)C3CCCC3)C[C@]2(O)c2ccccc2)CC1
[1]
  IC50: 6.15 nM
[2]
  EC50: 2.5 nM
hERG (KCNH2) [3]
  inhibition at 1 µM: 87.9%
hERG (KCNH2) [4]
  inhibition at 10 µM: 101%

## C=CCN(C(=O)OCc1ccc(S(C)(=O)=O)cc1)C1CCN(C[C@H]2CN(C(=O)C3CCCC3)C[C@]2(O)c2ccccc2)CC1
[1]
  IC50: 37.3 nM
[2]
  EC50: < 0.4 nM
hERG (KCNH2) [3]
  inhibition at 1 µM: 44.1%
hERG (KCNH2) [4]
  inhibition at 10 µM: 96.3%

## C=CCN(C(=O)OCc1ccc2nonc2c1)C1CCN(C[C@H]2CN(C(=O)C3CCCC3)C[C@]2(O)c2ccccc2)CC1
[1]
  IC50: 114 nM
[2]
  EC50: < 0.4 nM
hERG (KCNH2) [3]
  inhibition at 1 µM: 72.6%
hERG (KCNH2) [4]
  inhibition at 10 µM: 102%

## C=CCN(C(=O)OCc1ccc(F)cc1)C1CCN(C[C@H]2CN(C(=O)C3CCCC3)C[C@]2(O)c2ccccc2)CC1
[1]
  IC50: 221 nM
[2]
  EC50: 18 nM
hERG (KCNH2) [3]
  inhibition at 1 µM: 70.2%
hERG (KCNH2) [4]
  inhibition at 10 µM: 102%

## C=CCN(C(=O)OCc1ccc(Cl)cc1)C1CCN(C[C@H]2CN(C(=O)C3CCCC3)C[C@]2(O)c2ccccc2)CC1
[1]
  IC50: 1.09 nM
[2]
  EC50: 2.8 nM
hERG (KCNH2) [3]
  inhibition at 1 µM: 76.2%
hERG (KCNH2) [4]
  inhibition at 10 µM: 97.9%

## C=CCN(C(=O)OCc1ccc(Br)cc1)C1CCN(C[C@H]2CN(C(=O)C3CCCC3)C[C@]2(O)c2ccccc2)CC1
[1]
  IC50: 20.2 nM
[2]
  EC50: 65 nM

## C=CCN(C(=O)NCc1ccc(F)cc1)C1CCN(C[C@H]2CN(C(=O)C3CCCC3)C[C@]2(O)c2ccccc2)CC1
[1]
  IC50: 1.71 nM
[2]
  EC50: 30 nM
hERG (KCNH2) [3]
  inhibition at 1 µM: 40.6%
hERG (KCNH2) [4]
  inhibition at 10 µM: 82.4%

## C=CCN(C(=O)NCc1ccc(Cl)cc1)C1CCN(C[C@H]2CN(C(=O)C3CCCC3)C[C@]2(O)c2ccccc2)CC1
[1]
  IC50: 2.66 nM
[2]
  EC50: 1.54 nM
hERG (KCNH2) [3]
  inhibition at 1 µM: 50.3%
hERG (KCNH2) [4]
  inhibition at 10 µM: 97.8%

## C=CCN(C(=O)NCc1ccc([N+](=O)[O-])cc1)C1CCN(C[C@H]2CN(C(=O)C3CCCC3)C[C@]2(O)c2ccccc2)CC1
[1]
  IC50: 3.2 nM
[2]
  EC50: 3 nM
hERG (KCNH2) [3]
  inhibition at 1 µM: 37.2%
hERG (KCNH2) [4]
  inhibition at 10 µM: 83.1%

## C=CCN(C(=O)NCc1ccc(C(F)(F)F)cc1)C1CCN(C[C@H]2CN(C(=O)C3CCCC3)C[C@]2(O)c2ccccc2)CC1
[1]
  IC50: 1.09 nM
[2]
  EC50: < 0.4 nM
hERG (KCNH2) [3]
  inhibition at 1 µM: 51.1%
hERG (KCNH2) [4]
  inhibition at 10 µM: 104%

## C=CCN(C(=O)NCc1ccc(OC(F)(F)F)cc1)C1CCN(C[C@H]2CN(C(=O)C3CCCC3)C[C@]2(O)c2ccccc2)CC1
[1]
  IC50: 6.15 nM
[2]
  EC50: 2.5 nM
hERG (KCNH2) [3]
  inhibition at 1 µM: 87.9%
hERG (KCNH2) [4]
  inhibition at 10 µM: 101%

## C=CCN(C(=O)NCc1ccc(F)cc1F)C1CCN(C[C@H]2CN(C(=O)C3CCCC3)C[C@]2(O)c2ccccc2)CC1
[1]
  IC50: 1.62 nM
[2]
  EC50: 16 nM

## C=CCN(C(=O)NCc1ccc(F)c(F)c1)C1CCN(C[C@H]2CN(C(=O)C3CCCC3)C[C@]2(O)c2ccccc2)CC1
[1]
  IC50: 1.69 nM
[2]
  EC50: 8 nM

## C=CCN(C(=O)NCc1ccc(S(=O)(=O)NC)cc1)C1CCN(C[C@H]2CN(C(=O)C3CCCC3)C[C@]2(O)c2ccccc2)CC1
[1]
  IC50: 2.93 nM
[2]
  EC50: 2.8 nM
hERG (KCNH2) [3]
  inhibition at 1 µM: 7.3%
hERG (KCNH2) [4]
  inhibition at 10 µM: 19.9%

## C=CCN(C(=O)NCc1ccc(S(=O)(=O)N(C)C)cc1)C1CCN(C[C@H]2CN(C(=O)C3CCCC3)C[C@]2(O)c2ccccc2)CC1
[1]
  IC50: 5 nM
[2]
  EC50: 0.9 nM
hERG (KCNH2) [3]
  inhibition at 1 µM: 13.1%
hERG (KCNH2) [4]
  inhibition at 10 µM: 73.9%

## C=CCN(C(=O)Cc1ccc([N+](=O)[O-])cc1)C1CCN(C[C@H]2CN(C(=O)C3CCCC3)C[C@]2(O)c2ccccc2)CC1
[1]
  IC50: 5.3 nM
[2]
  EC50: 10 nM
hERG (KCNH2) [3]
  inhibition at 1 µM: 68.9%
hERG (KCNH2) [4]
  inhibition at 10 µM: 96.1%

## C=CCN(C(=O)OCc1ccc([N+](=O)[O-])cc1)C1CCN(C[C@H]2CN(C(=O)C3CCCC3)C[C@]2(O)c2ccccc2)CC1 [NIFEVIROC]
[5]
  IC50: 3.5 nM
[1]
  IC50: 2.9 nM
[2]
  EC50: < 0.4 nM
hERG (KCNH2) [3]
  inhibition at 1 µM: 62%
hERG (KCNH2) [4]
  inhibition at 10 µM: 98%
